Laboratory results taken from US12123881B2, “Rap1-Gtp, Rac1-GTP and FMS-like tyrosine kinase 3 ligand (FLT3-L) as biomarkers for early detection of sepsis” (UNM Rainforest Innovations, priority 2018, dated 2024).

Experiments:
[1] = tested on: Haemophilus influenzae; experiment: Clinical course of Patient #10 under antibiotic treatment, tracked by GTPase assay; type: in vivo, human
Excerpt: FIG. 4 G-Trap data readout, showing: A. Histograms of Cyto-Plex™ beads coded with discrete levels of 700 nm fluorescence beads for target GTPases. B&C. Flow cytometry histograms associated with GTPase activity in cell lysates exposed to blood plasma drawn from Patient #10 shown in FIG. 4D on day 0 (pre-infection) and 11 (post infection). D. Quantitative analysis of GTP binding to cytoplex beads in cell lysates treated with plasma drawn from Patient #10: a person was admitted after being crushed by a car. On day 2 a bacterial infection was suspected, thus a sputum culture was ordered and the patient was treated with broad-spectrum antibiotics including vancomycin and piperacillin/tazobactam. […] Patient's blood pressure trended upwards. On day 7, sputum-culture sent on day #2 was determined to be positive for Haemophilus influenzae and antibiotics were changed to 3 days of ceftriaxone (days 7-9). […] The onset of infection was sensitively detected by an increase in GTP binding to Rap1 and Rac1. […] E. Quantitative analysis of GTPase activity induced by Patient #3 plasma (see FIG. 2A-C). F. Quantitative analysis of GTPase activity induced by Patient #13 plasma. […] G Quantitative analysis of GTPase activity induced by Patient #14 plasma; a person admitted with no injuries after a low-speed car collision. […]

[2] = molecular target: T1, ChemR23 (CMKLR1) (Homo sapiens, UniProt Q99788); details: read-out: Kd, antagonist for ChemR23; cited from earlier work
T1 sequence (Q99788 1-373): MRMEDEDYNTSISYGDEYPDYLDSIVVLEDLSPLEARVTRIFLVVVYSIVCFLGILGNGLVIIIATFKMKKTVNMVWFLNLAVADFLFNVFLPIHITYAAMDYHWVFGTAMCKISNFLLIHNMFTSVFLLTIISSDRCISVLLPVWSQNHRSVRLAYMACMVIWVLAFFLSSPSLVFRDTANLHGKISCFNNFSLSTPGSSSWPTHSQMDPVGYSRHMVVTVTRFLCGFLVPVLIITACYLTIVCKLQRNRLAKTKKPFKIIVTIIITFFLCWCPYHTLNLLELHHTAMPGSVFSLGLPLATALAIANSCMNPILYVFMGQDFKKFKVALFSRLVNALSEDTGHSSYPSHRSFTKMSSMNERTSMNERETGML

[3] = molecular target: T2, ChemR23 (Homo sapiens, UniProt Q99788); experiment: G-Trap measurement of Rac1-GTP in cells challenged with Patient #10's plasma, with the ChemR23 antagonist; type: cell-based; details: Patient #10 plasma
T2 construct: endogenous in cells
T2 sequence (Q99788 1-373): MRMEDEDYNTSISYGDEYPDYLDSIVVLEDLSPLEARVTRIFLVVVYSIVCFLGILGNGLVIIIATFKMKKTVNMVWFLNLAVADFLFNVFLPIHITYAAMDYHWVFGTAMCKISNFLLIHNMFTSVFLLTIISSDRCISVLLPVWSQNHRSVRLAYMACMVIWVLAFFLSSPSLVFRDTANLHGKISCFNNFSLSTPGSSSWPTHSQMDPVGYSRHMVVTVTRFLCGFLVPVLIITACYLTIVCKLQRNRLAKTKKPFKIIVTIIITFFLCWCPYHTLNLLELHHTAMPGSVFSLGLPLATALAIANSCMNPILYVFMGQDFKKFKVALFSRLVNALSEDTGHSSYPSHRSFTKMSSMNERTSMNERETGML
Excerpt: As shown in FIGS. 2-4, the inventors use flow cytometry multiplex beads that are functionalized with signaling effector molecules of target GTP bound small GTPases to determine changes in the concentration of active GTPases in the blood plasma of trauma patients before and after a clinically diagnosed infection (FIGS. 6&7). In this setting, the beads capture GTP-bound GTPases in lysates of cells that were challenged with plasma samples of study subjects and then quantitatively analyzed on a flow cytometer.^9
Pilot study Proteomic of Patient #10 and #14 plasma samples. Laser densitometer readings of duplicate patient plasma samples (#10, and #14) were computer analyzed for differential expression of proteins as previously described. Spot data showing significant differences between patient samples and controls were determined from adjusted p-values using FDR (and Bonferroni) analysis as previously described. Ten spots were selected for mass spectrometry analysis. The selection was based on the magnitude of change in expression as well as positive correlation to trends in GTPase activity. Preliminary validation assay were performed Spot #130-CPN for patient 10 and Spot #102; Angiotensinogen for Patient 14, because of their overt connection to GTPase activity profile and the immediate availability of assay tools to confirm their presence. The value proposition of the invention as a clinical decision support tool is illustrated in FIG. 6. FIG. 6A panels show the patient's vital signs, which are indeterminate. The illness history of Patient 10 is summarized in example Case #2 above caption and recapitulated in FIG. 6B. […] The rationale for testing CPN in secondary assays was based on the following. CPN is a metallocarboxypeptidase that regulates complement anaphylatoxins (C3a, C4a, and C5a). [2; 3; 4] For clarity, the expression of carboxypeptidase N (CPN) are superimposed over changes in GTP binding to Rac1 and Rap1 (FIG. 6C) for days 8-11. […] We reasoned that the plasma upregulation of CPN was due to Haemophilus influenzae associated LPS. […] [6; 7; 8] […] [5]

[4] = tested on: Rap1; experiment: LPS induced GTP loading of Rap1, GTPase activity measured in cell lysates; type: cell-based; details: Vero E cells, exposed for 30 min
Excerpt: (§1) To establish a possible mechanistic link connecting GTPase activity, bacteria virulence factors and innate immune response to bacteria, we measured GTPase activity in cell lysates challenged cells with lipopolysaccharide (LPS) a Gram-negative bacterial endotoxin, which stimulates GTP binding to Rap1 in phagocytes and endothelial cells via CD14^18 (FIGS. 1A&B). […] Given the in vitro associations between Flt-3L and Rac1-GTP, we hypothesized that bacterial infection stimulates coordinate-increases in Flt-3L and Rap1-GTP. Furthermore, based on our data we hypothesized that LPS found in Gram negative bacteria, is likely to synergistically upregulate Rap1-GTP in tandem with Flt-3L which stimulates the upregulation of both Rap1-GTP and Rac-GTP. These findings were subsequently built-upon and extended to a retrospective study of longitudinal samples from trauma patients who developed hospital acquired infections. The human plasma samples were analyzed for 41 common inflammatory mediators using the 41plex HCYTMAG-60K-PX41 Cytokine kit, Human (Millipore, MA). In parallel, GTP loading of RhoA, Rac, and Rap1 was measured in cell lysates after their exposure to the plasma samples. […] We have previously disclosed a method of quantitative multiplex measurements of GTP binding to small GTPases. […]
(§2) C. […] GTPase activity was measured in cell lysates after the cells were exposed to LPS or Flt-3L for 30 min.

[5] = tested on: Rac1; experiment: Flt-3L induced GTP binding to Rac1, GTPase activity measured in cell lysates; type: cell-based; details: cells exposed to Flt-3L
Excerpt: as §1

[6] = tested on: Rap1; experiment: Flt-3L induced GTP binding to Rap1, GTPase activity measured in cell lysates; type: cell-based; details: endothelial cells, exposed for 30 min
Excerpt: as §1, §2

CO/N=C(\C(=O)N[C@@H]1C(=O)N2C(C(=O)O)=C(CSc3nc(=O)c(=O)[nH]n3C)CS[C@H]12)c1csc(N)n1 [Ceftriaxone, ceftriaxone]
treatment outcome indicated by GTPase assay ([1]; Patient #10, 3 days of treatment (days 7-9), read on day 9): failure of treatment
clinical outcome ([1]; Patient #10, restarted on day 14, lasted 7 days): patient recovery

C[N+](C)(C)CCC(=O)c1cccc2ccccc12.[I-] [α-NETA]
Kd [2]: ~6 µM
inhibition of GTPase activity ([3]; day 6): 40%
inhibition of GTPase activity ([3]; day 11): 20%
inhibition of GTPase activity ([3]; day 12): 25%

lipopolysaccharide [LPS]
GTP loading of Rap1 [4]: induced GTP loading of Rap1

B1: Flt-3L: hematopoietic four helical bundle cytokine, Fms-like tyrosine kinase-3 ligand (protein, UniProt P49771 27-235, looked up)
Fms-related tyrosine kinase 3 …: TQDCSFQHSPISSDFAVKIRELSDYLLQDYPVTVASNLQDEELCGGLWRLVLAQRWMERLKTVAGSKMQGLLERVNTEIHFVTKCAFQPPPSCLRFVQTNISRLLQETSEQLVALKPWITRQNFSRCLELQCQPDSSTLPPPWSPRPLEATAPTAPQPPLLLLLLLPVGLLLLAAAWCLHWQRTRRRTPRPGEQVPPVPSPQDLLLVEH
GTP binding to Rac1 [5]: elicited GTP binding to Rap1 and Rac1
GTP binding to Rap1 [6]: induced GTP binding to Rap1
